{
  "source": "paper PMC4213378",
  "about": "“Pharmacokinetics and Efficacy of the Spleen Tyrosine Kinase Inhibitor R406 after Ocular Delivery for Retinoblastoma” (Pharmaceutical Research, 2014)",
  "key": {"[1]": {"assay": "Crashing upon dilution of DMSO stock in PBS", "format": "physicochemical", "from_the_text": "Supplement 11095_2014_1399_MOESM1_ESM.docx, table 14: Table S14. R406 phenylsulfonate salt and free base crashing upon dilution of DMSO stock in PBS | column: Measured Concentration"}, "[2]": {"assay": "Maximum solubility in PBS or saline", "format": "physicochemical", "conditions": "PBS; read-out: maximum solubility in PBS"}, "[3]": {"system": "RB355 cells", "assay": "EdU incorporation (DNA synthesis) in RB355 cells", "format": "cell-based", "conditions": "5 μM R406, 0-72 h exposure", "description": "To determine if the lack of evidence of efficacy of subconjunctival R406 in a solution formulation was due to suboptimal ocular exposure, we performed a pharmacokinetic experiment. Briefly, 10 μl of R406 solution formulation was delivered to each eye of 15 mice and the plasma and vitreous were harvested at different time points (0.5, 1, 2, 4, and 8 h). The concentration of R406 was measured at each time point in each tissue and the concentration of drug was plotted as a function of time (Fig. 2). The 4 h and 8 h data are not shown, as the majority of R406 concentrations in these samples were BLOQ. […] Importantly, the maximal concentration achieved (0.05 μM) was well below the concentration required to kill the most sensitive retinoblastoma cell line (RB355 in culture, Fig. S3). RB355 cells in culture were treated with DMSO, 1, 2.5, or 5 μM of R406 for varied exposure durations (0, 6, 12, 24, 48 and 72 h). […] Incorporation of 5-ethynyl-2′-deoxyuridine (EdU) was used to detect DNA synthesis. […] Viability of RB355 cells in culture is reduced to 50% of the viability of DMSO treated cells when exposed to 2.5 μM R406 for an exposure duration between 24 and 48 h or 5 μM R406 for an exposure duration between 12 and 24 h.\nRB335 cells were seeded in 6-well dishes. […] Luminescence was read after 15 min on an Envision plate reader (Perkin Elmer). […]"}, "[4]": {"system": "retinoblastoma cells", "parameters": "method as in PMID 22237022", "conditions": "cited from earlier work"}, "[5]": {"assay": "Storage stability of R406 in murine vitreous samples", "format": "physicochemical, mouse", "description": "Stability: The extracted solution stability of R406 from murine plasma or vitreous was assessed at low (41.2nM), medium (370.4 nM), and high (3333.3 nM) concentrations in triplicate at room temperature. Blank murine plasma was spiked with the indicated concentrations of R406 and extracted solutions were stored at room temperature for day 0, and day 2. The short-term stability of R406 in murine plasma or vitreous at -20 °C was assessed at three concentrations in triplicate. […] internal standard/acetonitrile as described previously: for murine plasma samples, 50 µL of sample was quenched by addition of 100 µL of 5 mg/L OSI-906 (internal standard) in 100% acetonitrile, followed by plate sealing, shaking and centrifuging, transfer of 100 µL of supernatant injection of 10 µL of supernatant onto the LC–MS/MS system; for murine vitreous samples, 5 µL of sample quenched by addition of 45 µL of 5 mg/L OSI-906 (internal standard) in 100% acetonitrile, followed by plate sealing, shaking and centrifuging, transfer of 40 µL of supernatant injection of 10 µL of supernatant onto the LC–MS/MS system. Long term stability of R406 in murine plasma or vitreous at −80 °C was assessed. Unextracted spiked murine plasma or vitreous at low, medium, and high levels was frozen at −80 °C for 0, 7, and 14 days. Samples were thawed immediately extracted with acetonitrile/OSI-906, and quantitated. All samples were analyzed in triplicates."}},
  "data": [
    {"compound": "COc1cc(Nc2ncc(F)c(Nc3ccc4c(n3)NC(=O)C(C)(C)O4)n2)cc(OC)c1OC.O=S(=O)(O)c1ccccc1", "note": "[R406 phenylsulfonate salt]", "values": [
      {"measurement": "Measured Concentration", "setting": "[1]; 10 mM DMSO stock diluted 1 in 10 in PBS prior to filtration", "result": 1010, "unit": "µM"},
      {"measurement": "Measured Concentration", "setting": "[1]; DMSO stock diluted 1 in 10 in PBS, 0.22 micron filtered", "result": 88, "unit": "µM"},
      {"measurement": "Measured Concentration", "setting": "[1]; DMSO stock diluted 1 in 20 in PBS prior to filtration", "result": 559, "unit": "µM"},
      {"measurement": "Measured Concentration", "setting": "[1]; DMSO stock diluted 1 in 20 in PBS, 0.22 micron filtered", "result": 98, "unit": "µM"},
      {"measurement": "solubility", "setting": "[2]", "result": 0.4, "unit": "µM"}
    ]},
    {"compound": "COc1cc(Nc2ncc(F)c(Nc3ccc4c(n3)NC(=O)C(C)(C)O4)n2)cc(OC)c1OC", "note": "[R406]", "values": [
      {"measurement": "proportion of cells that incorporated EdU", "setting": "[3]", "result": "decreased with increasing exposure time"},
      {"measurement": "induction of caspase-mediated cell death of retinoblastoma cells in vitro", "setting": "[4]", "result": "can induce caspase-mediated cell death"},
      {"measurement": "time extracted samples were stable", "setting": "[5]; extracted from murine vitreous, room temperature", "result": "at least 48 hours"},
      {"measurement": "Accuracy%", "setting": "[5]; extracted vitreous samples in autosampler for 2 days, injected at Day 3, High Control 3333.3 nM", "result": 91.6, "unit": "%"},
      {"measurement": "Accuracy%", "setting": "[5]; extracted vitreous samples in autosampler for 2 days, injected at Day 3, Low Control 41.2 nM", "result": 96.0, "unit": "%"},
      {"measurement": "Accuracy%", "setting": "[5]; extracted vitreous samples in autosampler for 2 days, injected at Day 3, Middle Control 370.4 nM", "result": 88.8, "unit": "%"},
      {"measurement": "Accuracy%", "setting": "[5]; murine vitreous at -20°C, thawed on Day 2, injected at Day 3, High Control 3333.3 nM", "result": 91.1, "unit": "%"},
      {"measurement": "Accuracy%", "setting": "[5]; murine vitreous at -20°C, thawed on Day 2, injected at Day 3, Low Control 41.2 nM", "result": 109.4, "unit": "%"},
      {"measurement": "Accuracy%", "setting": "[5]; murine vitreous at -20°C, thawed on Day 2, injected at Day 3, Middle Control 370.4 nM", "result": 93.2, "unit": "%"},
      {"measurement": "Accuracy%", "setting": "[5]; murine vitreous at -20°C, thawed on Day 3, injected at Day 3, High Control 3333.3 nM", "result": 90.3, "unit": "%"},
      {"measurement": "Accuracy%", "setting": "[5]; murine vitreous at -20°C, thawed on Day 3, injected at Day 3, Low Control 41.2 nM", "result": 96.6, "unit": "%"},
      {"measurement": "Accuracy%", "setting": "[5]; murine vitreous at -20°C, thawed on Day 3, injected at Day 3, Middle Control 370.4 nM", "result": 94.4, "unit": "%"},
      {"measurement": "Accuracy%", "setting": "[5]; murine vitreous at -80°C, injected at Day 8, High Control 3333.3 nM", "result": 96.4, "unit": "%"},
      {"measurement": "Accuracy%", "setting": "[5]; murine vitreous at -80°C, injected at Day 8, Low Control 41.2 nM", "result": 78.7, "unit": "%"},
      {"measurement": "Accuracy%", "setting": "[5]; murine vitreous at -80°C, injected at Day 8, Middle Control 370.4 nM", "result": 87.5, "unit": "%"},
      {"measurement": "Accuracy%", "setting": "[5]; murine vitreous at -80°C, injected at Day 15, High Control 3333.3 nM", "result": 105.2, "unit": "%"},
      {"measurement": "Accuracy%", "setting": "[5]; murine vitreous at -80°C, injected at Day 15, Low Control 41.2 nM", "result": 105.5, "unit": "%"},
      {"measurement": "Accuracy%", "setting": "[5]; murine vitreous at -80°C, injected at Day 15, Middle Control 370.4 nM", "result": 99.4, "unit": "%"},
      {"measurement": "time spiked samples were stable", "setting": "[5]; murine vitreous stored at -20°C", "result": "at least 72 hours"},
      {"measurement": "time spiked samples were stable", "setting": "[5]; murine vitreous stored at -80°C", "result": "≥ 14", "unit": "days"}
    ]}
  ]
}
